In test [1] the test system is B3K-06 hybridoma. As to the kind of experiment: IL-2 production by B3K-06 T cell hybridoma in response to IA^b-peptide presenting APCs. It is filed as cell-based, mouse. The text has this:
The hybridoma, B3K-06 was produced from wild-type C57BL/6 mice immunized conventionally with the peptide (Rees et al., 1999, supra). […] Also, as is commonly seen with conventional T cells, the interaction of the αβ TcR of B3K-06 with IA^b-p3K is very sensitive to changes in any of the peptide amino acids exposed on the surface of the IA^b-p3K complex. Mutation of positions Q2, K3, K5, N7 or K8 to alanine virtually eliminates recognition of p3K by B3K-06 (Liu et al., 2002, supra and additional data not shown).
(§1) At the time of the final enrichment, single infected cells binding each of αβTCRs were sorted into individual wells of 96 well culture plates containing fresh SF9 cells in order to prepare clonal viral stocks. These stocks were used to infect fresh SF9 cells which were reanalyzed for binding to the appropriate αβTCR as described above. […] The majority of PCR fragments yielded a single unambiguous peptide sequence. These viruses were used to infect SF9 cells that expressed mouse ICAM and B7.1. The infected cells were used as APCs for either the B3K-06 or YAe-62 hybridoma with IL-2 production being a measure of IA^b-peptide recognition. Viruses expressing IA^b-peptide combinations that neither bound to the αβTCR nor stimulated the T cell hybridomas were used as negative controls and virus producing IA^b-p3K was used as the positive control. Results with a few representative virus clones are shown in FIG. 10A and 10B, and a summary of all of the results are shown in Table 1.

Test [2] concerns YAe-62 hybridoma. As to the kind of experiment: IL-2 production by YAe-62 T cell hybridoma in response to IA^b-peptide presenting APCs. It is filed as cell-based, mouse.
From the text: The mouse T cell hybridoma, referred to as YAe-62, was chosen as a representative of broadly reactive T cells present in mice carrying transgenes and gene knockouts that lead to expression of MHC Class II that are almost completely occupied by a single peptide (Ignatowicz et al., 1996, Cell 84:521-529). The T cell was produced by immunization with p3K bound to IA^b in mice that express IA^b covalently linked to Eα, a dominant IA^b binding peptide derived from the MHC Class II IEα chain. YAe-62 responds to IA^b-p3K, but not to APCs lacking MHC Class II or to the IA^b-pEα APCs from the mouse from which it was derived. YAe-62 is also reactive against many cell types bearing IA^b in the absence of p3K. It also responds to APCs from a variety of mice carrying other alleles of IA. The inventors have postulated that this T cell responds mainly to the evolutionarily conserved regions of the IA molecule with less dependence on the peptide than seen with conventional T cells (Marrack et al., 2001, J. Immunol. 167:617-621). […] From the X-ray crystal structure of IA^b (Liu et al., 2002, supra) enough was known about how peptides bind to this MHC molecule to design a strategy in which the major MHC anchor amino acids of the peptide could be held constant and only five surface exposed amino acids need be varied in the library (FIG. 8).
as §1

The subject of test [3] is YAe-62 TCR. As to the kind of experiment: Binding of fluorescent soluble YAe-62 αβTCR to SF9 cells displaying IA^b-peptide (flow cytometry). Details: species or system mouse. Here is the method: (§2) Next fluorescent, soluble αβTCR reagents were prepared for use in flow cytometry to detect insect cells displaying the appropriate MHCII/peptide combination. Fluorescent multivalent versions of the soluble αβTCR's of B3K-06 and YAe-62 bound to insect cells displaying the IA^b-p3K, but not a control MHCII-peptide combination (data not shown).
(§3) Insect cells displaying IA^b-p3K bound the αβTCR reagents very heterogeneously, probably due to heterogeneous expression of IA^b-p3K due to variations in the multiplicity of infection and the lack of synchrony in viral infection and expression. […] In this case, there was a direct correlation between the amount of surface IA^b-p3K expressed by an individual insect cell and the amount of αβTCR bound with cells bearing a particular level of IA^b-p3K binding the αβTCRs uniformly (data not shown). Therefore, comparing the two types of staining gave a useful tool to evaluate the relation between peptide sequence and the strength of αβTCR binding (see below).
(§4) A large number of SF9 insect cells were infected at an MOI of about one with baculovirus carrying the IA^b peptide library. After 3-4 days the cells were analyzed with fluorescent B3K-06 or YAe-62 soluble αβTCR, as described above. Fluorescent cells were sorted and cultured with fresh uninfected SF9 cells to create new infected cells for analysis and an enriched viral stock. This process was repeated 3 to 4 times. In each case, when no clear fluorescent population was apparent, the brightest 1% of the infected cells was sorted. In later rounds, the majority of the cells in a clearly distinguishable fluorescent population were sorted. Infected cells binding the B3K-06 αβTCR were apparent only after two rounds of enrichment but eventually yielded a population with uniform binding (data not shown). Infected cells that bound the YAe-62 αβTCR were detectable even with the initial library of viruses and enriched rapidly to yield a population with more heterogeneous levels of binding to the receptor (data not shown).
as §1

The target of test [4] is T1, IA^b (Mus musculus, UniProt P14434+P14483).
T1 sequence (P14434 24-256): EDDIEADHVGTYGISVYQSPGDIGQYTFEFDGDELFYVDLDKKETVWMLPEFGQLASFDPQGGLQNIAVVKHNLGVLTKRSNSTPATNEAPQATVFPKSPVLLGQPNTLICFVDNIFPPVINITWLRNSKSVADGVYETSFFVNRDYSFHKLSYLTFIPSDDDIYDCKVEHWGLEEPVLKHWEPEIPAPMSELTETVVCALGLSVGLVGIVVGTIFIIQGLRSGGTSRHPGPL
T1 sequence (P14483 28-265): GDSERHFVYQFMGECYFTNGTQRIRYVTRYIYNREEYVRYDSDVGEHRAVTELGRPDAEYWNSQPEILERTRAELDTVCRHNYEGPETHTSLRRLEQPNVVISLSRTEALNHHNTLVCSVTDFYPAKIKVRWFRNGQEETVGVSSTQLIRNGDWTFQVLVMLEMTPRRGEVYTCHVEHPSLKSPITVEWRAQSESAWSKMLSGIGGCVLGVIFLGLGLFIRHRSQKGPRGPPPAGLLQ
To be noted: Rees et al., 1999; cited from earlier work.

Test [5] has as its system B3K-06 TCR. Description: Binding of fluorescent soluble B3K-06 αβTCR to SF9 cells displaying IA^b-peptide (flow cytometry). Also noted: species or system mouse. Here is the method: as §2, §3, §4, §1
For orientation: Flow cytometry measures light scatter and fluorescence of single cells or particles in a stream.

In test [6] the test system is T cell 3DT-52.5. As to the kind of experiment: IL-2 production by T cell 3DT-52.5 in response to infected SF9 cells expressing D^d tethered to peptide. It is filed as cell-based, mouse. The settings on record: infected insect cells expressing D^d bearing the peptide as APCs. The text has this: FIG. 14A is a graph showing IL-2 produced by T cell 3DT-52.5 in response to ICAM+/B7+ SF9 cells infected with baculovirus expressing D^d tethered to either pHIV or the αβTCR identified peptide, TGPTRWCRL (SEQ ID NO:50).
To screen the library, soluble a αβTCR were produced from a mouse T cell specific for D^d plus an unknown self-peptide (Endres et al., 1983, J Immunol 131:1656-1662). A multimeric, fluorescent version of the αβTCR was produced as described for MHCII specific αβTCRs. SF9 cells, infected with the library at a multiplicity of infection (MOI) of <1, were analyzed for binding of the fluorescent αβTCR (data not shown). Although no clearly fluorescent population of cells was seen, of those with good surface D^d expression, the 1% of the cells with the brightest fluorescence were sorted and cultured with fresh insect cells to expand the virus. This type of enrichment was repeated six times, producing a clear population of infected cells was detected that bound the αβTCR (data not shown). The infected cells were cloned with fresh insect cells to prepare clonal viral stocks. These stocks were re-tested for encoding a D^d-peptide combination that bound the αβTCR.
DNA from a number of these clones was sequenced through the region encoding the peptide to determine the peptide sequence. […]

Test [7] relates to T cell 3DT-52.5. As to the kind of experiment: IL-2 production by T cell 3DT-52.5 in response to LKD8 cells plus synthetic peptide. To be noted: synthetic peptide 100 ug/ml, D^d expressing Tap deficient cell line, twenty four hours. It is filed as cell-based, mouse. The text has this: FIG. 14B is a graph showing IL-2 produced by T cell […] in response to (1) P815 plus a bound unknown self-peptide and 2) LKD8, alone, or in the presence of the library derived peptide, TGPTRWCRL (SEQ ID NO:50), or a peptide derived from the spin protein, AGATRWCRL (SEQ ID NO:51).
DNA from a number of these clones was sequenced through the region encoding the peptide to determine the peptide sequence. Only one sequence was found, a 9mer, TGPTRWCRL (represented by SEQ ID NO:50; the underlined amino acids are in the positions varied in the library). […] A search of the mouse genome for proteins that contained peptides similar to the library peptide yielded a very similar sequence (AGATRWCRL; SEQ ID NO:51) intheprotein, spin(GenBank Accession No. BC011467). The library peptide and the spin peptide were synthesized and tested with a D^d expressing, Tap deficient, cell line for recognition by the original T cell (FIG. 14B). […] In the case of LKD8 the cell line was tested alone or in the presence of 100 ug/ml of the library derived peptide, TGPTRWCRL (SEQ ID NO:50), or a peptide derived from the spin protein, AGATRWCRL (SEQ ID NO:51). After twenty four hours the culture supernatants were assayed for IL-2. Without an added peptide, the D^d on this cell line was not recognized because the Tap deficiency prevents loading of endogenous peptides.

Where [8] appears, read: IA^b-peptide displayed on baculovirus-infected SF9 cells, fluorescent soluble αβTCR.
Where [9] appears, read: insect cells displaying IA^b-peptide.

“F E A Q K A K A N K A V (FEAQKAKANKAV; synthetic peptide motif) [p3K, positive control]”: the “IL-2 Production (units/ml)” value worked out at 3500 units/ml in test [1] (B3K-06 hybridoma, infected SF9 cells expressing mouse ICAM and B7.1 as APCs); 205 units/ml in test [2] (YAe-62 hybridoma, infected SF9 cells expressing mouse ICAM and B7.1 as APCs). The “response of B3K-06 to IA^b-expressing APCs plus peptide” value in test [1] (IA^b-expressing APCs, data not shown) is “responds to IA^b-expressing APCs in the presence, but not in the absence of the peptide”. For the same substance, the “response of YAe-62 to IA^b-peptide APCs” value in test [2] (APCs bearing IA^b-peptide) is recorded as “responds”. Besides, the “YAe-62 TCR Binding (% of p3K)” value in test [3] (setting [8]) was 100.0 % of p3K. The “binding of YAe-62 αβTCR to IA^b-peptide complex (in words)” value in test [3] (setting [9]) is “bound”. The “binding of peptide to IA^b” value in test [4] is “binds well”. In addition, the “B3K-06 TCR Binding (% of p3K)” value in test [5] (setting [8]) is 100.0 % of p3K. Besides, in test [5] (setting [9]), the “binding of B3K-06 αβTCR to IA^b-peptide complex (in words)” value is reported as “bound”.

For “TGPTRWCRL (synthetic peptide motif) [9mer D^d library derived peptide identified with the αβTCR of 3DT-52.5]”, the “stimulation of IL-2 production from the original T cell donor of the αβTCR” value in test [6] is given as “specifically stimulated IL-2 production”. Besides, in test [7], the “restoration of the ability of LKD8 cells to stimulate the T cells (IL-2)” value is reported as “restored the ability of the cells to stimulate the T cells”.

The values above are taken from patent US20040110253A1, “Method for identifying MHC-presented peptide epitopes for T cells” (priority 2002, published 2004).
